Data on 5 compounds can be found in patent EP3932409A1 (priority 2020, dated 2022).

One data set deals with 229E-GFP. As to the kind of experiment: microbe, parasite or virus in culture. The class given is cell-based, human coronavirus. The note with it: for EC90 / EC50: 72 h; for EC50: read-out: ECso; for infection by 229E-GFP: result in words, micromolar concentrations.
The nature of another data set: in vitro. Particulars: human, huh7-lunet#3 cells.
The subject of data set [1] is SARS-CoV-2. As to the kind of experiment: SARS-CoV-2 cell monolayer protection assay. The class given is cell-based, SARS-CoV-2 strain NL/2020. The note with it: Severe acute respiratory syndrome coronavirus 2, Vero C1008, 72 h; for EC100: read-out: concentration protecting completely / around 100% of the cell monolayer.
Data set [2] has as its system SARS-CoV-2. Format: cell-based, SARS-CoV-2 strain NL/2020.
The test system of data set [3] is SARS-CoV-2. The experiment in a line: Intracellular viral RNA quantitation (RT-qPCR), with time of addition. Format: cell-based, SARS-CoV-2 strain NL/2020.
In data set [4] the test system is retroviral vectors pseudotyped with SARS-CoV-2 Spike protein (SARS2pp). The experiment in a line: microbe, parasite or virus in culture. Format: cell-based. The note with it: Severe acute respiratory syndrome coronavirus 2, Vero C1008, 48 h.
The next data set concerns Vero-E6 cells. The note with it: uninfected Vero-E6 cells, 200 to 3.125 µM, crystal violet.

What is called EC90 is the concentration needed for an effect of 90%. Low values mean an effect from little substance, high ones a need for much substance. The CC50 is the concentration giving 50% cytotoxicity.

`CO/N=C(\C(=O)N[C@@H]1C(=O)N2C(C(=O)O)=C(COC(N)=O)CS[C@H]12)c1ccco1` [Cefuroxime]: in the data set on 229E-GFP, the EC90 is over 50 µM, the EC50 was over 50 µM and the “infection by 229E-GFP” value is “not significantly affected”. The compound also returned a CC50 at 72 h in the data set “in vitro” of over 50 µM.
Take `CC[C@H]1OC(=O)[C@H](C)[C@@H](O[C@H]2C[C@@](C)(OC)[C@@H](O)[C@H](C)O2)[C@H](C)[C@@H](O[C@@H]2O[C@H](C)C[C@H](N(C)C)[C@H]2O)[C@](C)(O)C[C@@H](C)CN(C)[C@H](C)[C@@H](O)[C@]1(C)O` [Azithromycin]: in the data set with 229E-GFP, the 90% effect level (EC90) was put at 18.8 ± 2.5 µM, the EC50 was determined as 6.1 ± 2.4 µM and the “infection by 229E-GFP” value is given as “blocked viral infection”. For the same compound, in the data set on SARS-CoV-2 [1], the EC50 turned out to be 75 µM and the EC100 came out at 200 µM. Besides, the “progeny virus production (TCID50)” value in the data set on SARS-CoV-2 [2] is on record as “undetectable levels”. The “viral RNA accumulation” value in the data set on SARS-CoV-2 [3] was “significantly reduced viral RNA accumulation in a dose dependent manner”. The compound also yielded an EC50 in data set [4] of about 30 µM. The “cytotoxicity in Vero-E6 cells” value in the data set with Vero-E6 cells is given as “not toxic at any of the tested concentrations”. Also, the CC50 at 72 h in “in vitro” was over 50 µM.
Consider `CC[C@H]1OC(=O)[C@H](C)[C@@H](O[C@H]2C[C@@](C)(OC)[C@@H](O)[C@H](C)O2)[C@H](C)[C@@H](O[C@@H]2O[C@H](C)C[C@H](N(C)C)[C@H]2O)[C@](C)(OC)C[C@@H](C)C(=O)[C@H](C)[C@@H](O)[C@]1(C)O` [Clarithromycin], for which, in the data set with 229E-GFP, the 90% effect level (EC90) was put at 46.3 ± 4.8 µM, the EC50 amounted to 17.3 ± 9.2 µM and the “infection by 229E-GFP” value is recorded as “blocked viral infection”. Besides, in the data set with SARS-CoV-2 [1], the EC50 was 60 µM and the EC100 stood at 100 µM. The “progeny virus production (TCID50)” value in the data set on SARS-CoV-2 [2] is given as “undetectable levels”. In the data set with SARS-CoV-2 [3], the “viral RNA accumulation” value was “significantly reduced viral RNA accumulation in a dose dependent manner”. In data set [4], this compound showed an EC50 of about 30 µM. In “in vitro”, this compound showed a cytotoxic concentration (CC50) at 72 h of over 50 µM.
Take `CC[C@H]1OC(=O)[C@H](C)[C@@H](O[C@H]2C[C@@](C)(OC)[C@@H](O)[C@H](C)O2)[C@H](C)[C@@H](O[C@@H]2O[C@H](C)C[C@H](N(C)C)[C@H]2O)[C@](C)(O)C[C@@H](C)C(=O)[C@H](C)[C@@H](O)[C@]1(C)O` [Erithromycin, Erythromycin]: in the data set on 229E-GFP, the concentration for an effect of 90% (EC90) is over 50 µM, the EC50 was over 50 µM and the “infection by 229E-GFP” value was “not significantly affected”. The CC50 at 72 h in “in vitro” is over 50 µM.
Consider `CC[C@H]1OC(=O)[C@H](C)[C@@H](O[C@H]2C[C@@](C)(OC)[C@@H](O)[C@H](C)O2)[C@H](C)[C@@H](O[C@@H]2O[C@H](C)C[C@H](N(C)C)[C@H]2O)[C@](C)(O)C[C@@H](C)/C(=N\OC)[C@H](C)[C@@H](O)[C@]1(C)O` [Lexithromycin], for which, in the data set with 229E-GFP, the EC90 was found to be 16.3 ± 6 µM, the EC50 turned out to be 3 ± 1.4 µM and the “infection by 229E-GFP” value was “blocked viral infection”. Besides, in the data set on SARS-CoV-2 [1], the EC50 is 25 µM and the EC100 was 50 µM. The “progeny virus production (TCID50)” value in the data set on SARS-CoV-2 [2] is on record as “undetectable levels”. Moreover, the “viral RNA accumulation” value with SARS-CoV-2 [3] is listed as “significantly reduced viral RNA accumulation in a dose dependent manner”. The EC50 in data set [4] is about 18 µM. Moreover, the “cytotoxicity in Vero-E6 cells” value in the data set on Vero-E6 cells was “the most toxic compound”. In addition, in the data set “in vitro”, the 50% cytotoxic concentration (CC50) at 72 h was over 50 µM.
